Laboratory results: patent publication US20090181898A1, “ABUSE-RESISTANT A[…]” (SHIRE LLC, priority 2002, published 2009)
“And” between values parts separate entries of the source, which are not always exact repeats. Equal entries are not always repeated. Where two headings read alike, the source gives them in different places.

How the values were obtained:
[1] = Intranasal bioavailability of peptide amphetamine conjugates (HCl salts, ELISA); details: rat, parenteral routes
[2] = target: T1, human recombinant norepinephrine transport binding sites (NET) (Homo sapiens, UniProt P23975); test: Radioligand binding assay, norepinephrine transporter (NovaScreen)
T1 construct: NovaScreen, Hanover, Md; (contract laboratory that ran the assay)

[3] = Kitchen tests: water, acid (vinegar), base (baking powder, baking soda), boiling; assay type: physicochemical; details: for free amphetamine released: heated to boiling for 20-60 minutes
Protocol: “Kitchen tests” were performed in anticipation of attempts by illicit chemists to release free amphetamine from the amphetamine conjugate.

[4] = Pharmacokinetics in male beagle dogs after oral or 30-min intravenous administration, 1 mg/kg (LC/MS/MS); assay type: in vivo; details: for AUC(0-t): read-out: AUC0-t of L-lysine-d-amphetamine; for AUC(0-inf): read-out: AUCinf of L-lysine-d-amphetamine; for Cmax: read-out: Cmax of L-lysine-d-amphetamine; for MRT: read-out: MRT of L-lysine-d-amphetamine; for half-life: read-out: t1/2 of L-lysine-d-amphetamine (converted)
Text: This was a non-randomized, two-treatment crossover study. All animals were maintained on their normal diet and were fasted overnight prior to each dose administration. L-lysine-d-amphetamine dose was based on the body weight measured on the morning of each dosing day. The actual dose delivered was based on syringe weight before and after dosing. Serial blood samples were obtained from each animal by direct venipuncture of a jugular vein using vacutainer tubes containing sodium heparin as the anticoagulant. Derived plasma samples were stored frozen until shipment to Quest Pharmaceutical Services, Inc. (Newark, Del.). Pharmacokinetic analysis of the plasma assay results was conducted by Calvert. Animals were treated as follows:
Oral: The test article was administered to each animal via a single oral gavage. On Day 1, animals received the oral dose by gavage using an esophageal tube attached to a syringe. Dosing tubes were flushed with approximately 20 mL tap water to ensure the required dosing solution was delivered.
Intravenous: On Day 8, animals received L-lysine-d-amphetamine as a single 30-minute intravenous infusion into a cephalic vein.
Blood: Serial blood samples (2 mL) were collected using venipuncture tubes containing sodium heparin. Blood samples were taken at 0, 0.25, 0.5, 1, 2, 4, 8, 12, 24, 48, and 72 hours post-oral dosing. […] Collected blood samples were chilled immediately.
Microsoft Excel (Version 6, Microsoft Corp., Redmond, Wash.) was used for calculation of mean plasma concentration and graphing of the plasma concentration-time data. Pharmacokinetic analysis (non-compartmental) was performed using the WinNonlin® software program (Version 4.1, Pharsight, Inc. Mountain View, Calif.). The maximum concentration (Cmax) and the time to Cmax(Tmax) were observed values. The area under the plasma concentration-time curve (AUC) was determined using linear-log trapezoidal rules. The apparent terminal rate constant (λz) was derived using linear least-squares regression with visual inspection of the data to determine the appropriate number of points (minimum of 3 data points) for calculating λz. The AUC0-inf was calculated as the sum of AUC0-t and Cpred/λz, where Cpred was the predicted concentration at the time of the last quantifiable concentration. The plasma clearance (CL/F) was determined as the ratio of Dose/AUC0-inf. The mean residence time (MRT) was calculated as the ratio of AUMC0-inf/AUC0-inf where AUMC0-inf was the area under the first moment curve from the time zero to infinity. The volume of distribution at steady state (Vss) was estimated as CL*MRT. Half-life was calculated as ln 2/λz. The oral bioavailability (F) was calculated as the ratio of AUC0-inf following oral dosing to AUC0-inf following intravenous dosing. Descriptive statistics (mean and standard deviation) of the pharmacokinetic parameters were calculated using Microsoft Excel.
Blood samples were collected up to 24 and 72 hours after the intravenous and oral doses, respectively.

[5] = Clinical steady-state pharmacokinetics, 70 mg capsules once daily for 7 days, healthy adults, fasting
Protocol: Patients fasted for at least 10 hours before and 4 hours after final dosing. Venous blood samples (7 mL) were drawn into EDTA vacutainers both before medication dosing on days 0, 1, 6, and 7 (in the morning) and at 16 time points (hours 0.5, 1, 1.5, 2, 3, 4, 5, 6, 7, 8, 10, 12, 16, 24, 48, and 72) after final dosing on day 7. Immediately after sample collection, vacutainer tubes were centrifuged at 3000 rpm at 4° C. for 10 minutes; within 1 hour of collection, they were stored at −20° C.

[6] = Intranasal bioavailability of L-lysine-d-amphetamine vs amphetamine (ELISA); details: rat, 3 mg/kg
[7] = 30 min iv, 1 mg/kg d-amphetamine base, individual dogs, 1 mg/kg
[8] = male, beagle, dog, plasma, iv, 1 mg/kg, 30 min iv, 1 mg/kg d-amphetamine base, individual dogs
[9] = male, beagle, dog, plasma, po, 1 mg/kg, oral, 1 mg/kg d-amphetamine base, individual dogs
[10] = oral, 1 mg/kg d-amphetamine base, individual dogs, 1 mg/kg
[11] = steady state, 70 mg once daily for 7 days, healthy adults, fasting, mean n = 11

T1 sequence (P23975 whole entry): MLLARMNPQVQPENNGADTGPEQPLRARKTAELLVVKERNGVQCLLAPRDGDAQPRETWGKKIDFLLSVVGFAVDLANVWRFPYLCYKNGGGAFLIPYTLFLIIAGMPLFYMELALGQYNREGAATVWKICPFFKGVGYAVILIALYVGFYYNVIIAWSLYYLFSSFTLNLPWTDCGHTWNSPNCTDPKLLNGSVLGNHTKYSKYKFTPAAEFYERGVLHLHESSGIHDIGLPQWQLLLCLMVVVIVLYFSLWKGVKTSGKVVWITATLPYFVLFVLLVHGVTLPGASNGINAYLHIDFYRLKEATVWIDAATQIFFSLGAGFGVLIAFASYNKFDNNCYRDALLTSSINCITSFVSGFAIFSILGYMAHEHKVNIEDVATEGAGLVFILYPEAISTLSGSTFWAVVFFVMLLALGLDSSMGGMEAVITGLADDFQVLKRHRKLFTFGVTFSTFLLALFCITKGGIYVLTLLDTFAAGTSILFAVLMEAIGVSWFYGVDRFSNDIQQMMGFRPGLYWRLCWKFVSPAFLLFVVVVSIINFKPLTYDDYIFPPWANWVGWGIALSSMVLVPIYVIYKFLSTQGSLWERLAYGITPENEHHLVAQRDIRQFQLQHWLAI

Compound: CC(Cc1ccccc1)NC(=O)C(N)CCCCN [L-lysine-d-amphetamine, 2,6-diaminohexanoic acid-(1-methyl-2-phenylethyl)-amide]
- Bioavailability by parenteral routes of administration [1]: decreased parenteral bioavailability
- inhibition at 10 µM ([2]; 10^−5 mol/L): 13.9%
- inhibition at 0.1 µM ([2]; 10^−7 mol/L): -11.8%
- inhibition at 0.001 µM ([2]; 10^−9 mol/L): 8.15%
- Specific binding to norepinephrine transport binding sites ([2]; 10^−9 to 10^−5 M): did not bind
- Activity ([2]; NE Transporter, radioligand [3H]-Nisoxetine, 10^−9 to 10^−5 M): No (No activity is defined as producing between −20% and 20% inhibition of radioligand binding (Novascreen).)
- free amphetamine released ([3]; Baking Powder): 0%
- free amphetamine released ([3]; Baking Soda): 0%
- free amphetamine released ([3]; Tap Water): 0%
- free amphetamine released ([3]; Vinegar): 0%
- Release of free amphetamine in kitchen tests ([3]; water, vinegar, baking powder, baking soda, boiling 20-60 minutes): no detectable free amphetamine
- AUC0-t of L-lysine-d-amphetamine [4, 7]: 1072.3 ng·h/mL and 914.1 ng·h/mL
- Cmax of L-lysine-d-amphetamine [4, 7]: 1826.4 ng/mL and 1654.2 ng/mL
- MRT of L-lysine-d-amphetamine [4, 7]: 19.2 min and 18 min
- Vss of L-lysine-d-amphetamine [4, 7]: 0.6034 L/kg and 0.656 L/kg
- t1/2 of L-lysine-d-amphetamine [4, 7]: 63 min
- Time by which L-lysine-d-amphetamine fell below the quantifiable limit (1 ng/mL) ([4]; IV infusion, post-dose): approximately 8 hours
- AUC(0-t) [4, 8]: 898 ng·h/mL
- AUC(0-inf) [4, 8]: 900 ng·h/mL
- clearance ([4]; male, beagle, dog, plasma, iv, 1 mg/kg, 30 min iv, 1 mg/kg d-amphetamine base, individual dogs, read-out: CL of L-lysine-d-amphetamine (converted)): 37 mL/min/kg
- Cmax [4, 8]: 1470 ng/mL
- MRT [4, 8]: 21.6 min
- Vd ([4]; male, beagle, dog, plasma, iv, 1 mg/kg, 30 min iv, 1 mg/kg d-amphetamine base, individual dogs, read-out: Vss of L-lysine-d-amphetamine): 0.807 L/kg
- half-life [4, 8]: 43.2 min
- AUC(0-t) ([4]; male, beagle, dog, plasma, iv, 1 mg/kg, 30 min iv, 1 mg/kg d-amphetamine base, mean of 3 dogs): 962 ng·h/mL
- clearance ([4]; male, beagle, dog, plasma, iv, 1 mg/kg, 30 min iv, 1 mg/kg d-amphetamine base, mean of 3 dogs, read-out: CL of L-lysine-d-amphetamine (converted)): 34.8 mL/min/kg
- clearance ([4]; male, beagle, dog, plasma, iv, 1 mg/kg, IV 30-min infusion, 1 mg/kg, read-out: Mean clearance of L-lysine-d-amphetamine): 34.8 mL/min/kg
- AUC(0-t) [4, 9]: 368 ng·h/mL
- AUC(0-inf) [4, 9]: 369 ng·h/mL
- CL/F ([4]; male, beagle, dog, plasma, po, 1 mg/kg, oral, 1 mg/kg d-amphetamine base, individual dogs, read-out: CL/F of L-lysine-d-amphetamine (converted)): 90.4 mL/min/kg
- Cmax [4, 9]: 407 ng/mL
- bioavailability ([4]; male, beagle, dog, plasma, po, 1 mg/kg, oral, 1 mg/kg d-amphetamine base, individual dogs, read-out: F (bioavailability) of L-lysine-d-amphetamine): 34.3%
- MRT [4, 9]: 44.4 min
- half-life [4, 9]: 28.8 min
- AUC(0-t) ([4]; male, beagle, dog, plasma, po, 1 mg/kg, oral, 1 mg/kg d-amphetamine base, mean of 3 dogs): 318 ng·h/mL
- AUC0-t of L-lysine-d-amphetamine [4, 10]: 310.8 ng·h/mL and 275.3 ng·h/mL
- Cmax of L-lysine-d-amphetamine [4, 10]: 227.4 ng/mL and 350.2 ng/mL
- F (bioavailability) of L-lysine-d-amphetamine [4, 10]: 34.0% and 30.8%
- MRT of L-lysine-d-amphetamine [4, 10]: 61.8 min and 40.8 min
- t1/2 of L-lysine-d-amphetamine [4, 10]: 27 min and 14.4 min
- Time within which L-lysine-d-amphetamine was completely eliminated ([5]; healthy adults, 70 mg): ≤ 6 h
- Tolerability ([5]; healthy adults, 70 mg, 7 days): well tolerated
- AUC(0-inf) ([5]; human, in vivo, 70 mg): 61.1 ng·h/mL
- Cmax ([5]; human, in vivo, 70 mg): 47.9 ng/mL
- Tmax ([5]; human, in vivo, 70 mg): 68.4 min
- half-life ([5]; human, in vivo, 70 mg): 25.8 min
- AUC(0-t) ([5]; human, in vivo, 70 mg, AUC0-24 of intact L-lysine-d-amphetamine, steady state, 70 mg once daily for 7 days, healthy adults, fasting, mean n = 11): 60.7 ng·h/mL
- AUC(0-t) ([5]; human, in vivo, 70 mg, AUC0-t of intact L-lysine-d-amphetamine, steady state, 70 mg once daily for 7 days, healthy adults, fasting, mean n = 11): 59.4 ng·h/mL
- AUC(0-t) ([5]; human, in vivo, 70 mg, Mean AUC0-24 of intact L-lysine-d-amphetamine, healthy adults, 70 mg once daily, after dose 7): 60.7 ng·h/mL
- AUC0-∞ of intact L-lysine-d-amphetamine [5, 11]: 61.06 ng·h/mL
- Cmin of intact L-lysine-d-amphetamine [5, 11]: 0.0 ng/mL
- FI of intact L-lysine-d-amphetamine [5, 11]: 1896.06%

Compound: d-amphetamine
- AUC (0-[…]) of d-amphetamine ([6]; hydrochloride salt study): 727 ng·h/mL
- Cmax of d-amphetamine ([6]; hydrochloride salt study): 1,377 ng/ml
- AUC (0-1.0 h) of d-amphetamine ([6]; mesylate salt study): 573 ng·h/mL
- Cmax of d-amphetamine ([6]; mesylate salt study): 1114 ng/mL
